PMC11719724, “Antimicrobial Peptides from Porcine Blood Cruor Hydrolysates as a Promising Source of Antifungal Activity” (Foods, 2024)
Where no end group is shown, it is not given here.

Experiments:
[1] = test system: Paecilomyces spp. 5332-9a; type: cell-based; settings: Figure 1 pictures C,D; peptides 2.5 mM, natamycin 50 µg/mL, 80 µL per well; 25 °C, 48 h
Procedure: (§1) The sixteen peptides were initially tested using the agar well diffusion method against the indicator strains E. coli, L. ivanovii, R. mucilaginosa, and Paecilomyces spp., as previously described in [22]. To perform this procedure, 25 µL of the prepared culture suspension (adjusted to 10^6 CFU/mL for bacteria and yeasts and 10^5 CFU/mL for molds) was diluted in 25 mL of Tryptic Soy Broth (TSB) (for bacterial strains) or Potato Dextrose Broth (PDB) (for fungal strains) supplemented with 0.75% agar and poured into a Petri dish (90 mm diameter) until dried. The culture media of the suspension was prepared using TSB for bacterial cultures and peptone water (10% w/v) supplemented with 0.1% Tween 80 (w/w) for fungal cultures as it enhances spore dispersion. Subsequent to the drying process, wells were formed using a sterile 5 mL pipette. A volume of 80 µL of each peptide at a concentration of 2.5 mM was added to each well. Ampicillin (MilliporeSigma Canada Ltd., Oakville, ON, Canada), at a concentration of 256 µg/mL and natamycin (MilliporeSigma Canada Ltd., Oakville, ON, Canada) at 50 µg/mL, were used as positive controls for bacterial and fungal tests, respectively, as they are wide-spectrum antimicrobials. The solvent of the peptides was included as negative control in all experiments. […] Thereafter, inhibition halos were measured, and images were captured using a Biorad Chemidoc camera.

[2] = test system: Rhodotorula mucilaginosa 27173; type: cell-based; settings: Figure 1 pictures A,B; peptides 2.5 mM, natamycin 50 µg/mL, 80 µL per well; 25 °C, 48 h
Procedure: as §1

[3] = test system: Debaryomyces hansenii LL11042; type: cell-based; settings: 48 h
Procedure: (§2) A microtitration assay was conducted to determine the minimum inhibitory concentration (MIC) of the peptides against the collection of indicator microorganisms. The growth medium used for the isolated bacterial and fungal strains was TSB and PDB, respectively. In brief, 175 µL of the culture medium was added to the wells of column 1 (negative growth control) and 125 µL to the wells of columns 2–12. Subsequently, 125 µL of each peptide (stock concentration of 2.5 mM), positive control (stock concentration of 256 µg/mL for ampicillin in bacterial tests and 50 µg/mL for natamycin in fungal tests) and negative control (10% DMSO in H2O (v/v)) were added to the wells in column 3 and mixed by pipetting up and down 10 times. A total of 125 µL from column 3 was removed and transferred to column 4, where serial dilutions were performed until the final dilution reached column 12. The final volume was then discarded. […] Subsequently, 50 µL of the indicator strain suspension (at a concentration of 10^5 CFU/mL for yeasts and bacteria and 10^4 CFU/mL for molds) was introduced to all the wells, except for column 1. The culture medium used for culture suspension was identical to that employed in the agar well diffusion method. The microplate was incubated for 24 h at 37 °C for bacterial isolates and for 48 h at 25 °C for fungal isolates.
(§3) The minimal bactericidal/fungicidal concentration (MBC/MFC) was calculated by transferring 10 µL of the wells where no growth could be detected to agar plates (TSA for bacterial isolates and Dichloran Rose Bengal Chloramphenicol Agar (DBRC)) (BD Difco Laboratories, Sparks, MD, USA). After incubation (24 h, 37 °C for bacteria and 48 h, 25 °C, for fungi), the peptide concentration with which no growth was observed, was considered to be the MBC/MFC. The MBC/MIC and MFC/MIC ratios were calculated in order to ascertain the effect of the peptides. A ratio of ≤4 is indicative of bactericidal/fungicidal efficacy, whereas a ratio of >4 indicates bacteriostatic/fungistatic activity.

Eurotium rubrum 3071.14a = type: cell-based; settings: 48 h
Procedure: as §2, §3

Mucor racemosus LMA-722 = type: cell-based; settings: 48 h
Procedure: as §2, §3

[4] = test system: Paecilomyces spp. 5332-9a; type: cell-based; settings: 48 h
Procedure: as §2, §3

[5] = test system: Penicillium chrysogenum LMA-212; type: cell-based; settings: 48 h
Procedure: as §2, §3

[6] = test system: Rhodotorula mucilaginosa 27173; type: cell-based; settings: 48 h
Procedure: as §2, §3

C. guilliermondii 27168 = type: cell-based, Candida guilliermondii; settings: 48 h
Procedure: (§4) A microtitration assay was conducted to determine the minimum inhibitory concentration (MIC) of the peptides against the collection of indicator microorganisms. The growth medium used for the isolated bacterial and fungal strains was TSB and PDB, respectively. In brief, 175 µL of the culture medium was added to the wells of column 1 (negative growth control) and 125 µL to the wells of columns 2–12. Subsequently, 125 µL of each peptide (stock concentration of 2.5 mM), positive control (stock concentration of 256 µg/mL for ampicillin in bacterial tests and 50 µg/mL for natamycin in fungal tests) and negative control (10% DMSO in H2O (v/v)) were added to the wells in column 3 and mixed by pipetting up and down 10 times. A total of 125 µL from column 3 was removed and transferred to column 4, where serial dilutions were performed until the final dilution reached column 12. The final volume was then discarded. […]
(§5) The minimal bactericidal/fungicidal concentration (MBC/MFC) was calculated by transferring 10 µL of the wells where no growth could be detected to agar plates (TSA for bacterial isolates and Dichloran Rose Bengal Chloramphenicol Agar (DBRC)) (BD Difco Laboratories, Sparks, MD, USA). […] The MBC/MIC and MFC/MIC ratios were calculated in order to ascertain the effect of the peptides. […]

A. versicolor LMA-370 = type: cell-based, Aspergillus versicolor; settings: 48 h
Procedure: as §2, §3

P. commune 27163 = type: cell-based, Penicillium commune; settings: 48 h
Procedure: as §4, §5

| Compound | MIC, Debaryomyces hansenii [3] [µM] | MIC, Eurotium rubrum (Eurotium rubrum 3071.14a) [µM] | MFC, Activity Against Paecilomyces spp. [4] [µM] | MIC, Activity Against Paecilomyces spp. [4] [µM] | MIC, Penicillium chrysogenum [5] [µM] | MFC, Activity Against R. mucilaginosa [6] [µM] | MIC, Activity Against R. mucilaginosa [6] [µM] | MIC, Aspergillus versicolor (A. versicolor LMA-370) [µM] | also measured |
| --- | --- | --- | --- | --- | --- | --- | --- | --- | --- |
| C[C@@H]1C/C=C/C=C/C=C/C=C/[C@H](O[C@@H]2O[C@H](C)[C@@H](O)[C@H](N)[C@@H]2O)C[C@@H]2O[C@](O)(C[C@@H](O)C[C@H]3O[C@@H]3/C=C/C(=O)O1)C[C@H](O)[C@H]2C(=O)O [Natamycin, natamycin] | – | – | – | – | – | – | – | – | inhibition halo (qualitative) [1]: Clear inhibition halos; inhibition halo (qualitative) [2]: Clear inhibition halos |
| FQKVVAGVANALAHKYH [Pep5] | 156 ± 0 | 39 ± 0 | 9 ± 0 | 9 ± 0 | 312 ± 0 | 78 ± 0 | 39 ± 0 | 39 ± 0 | MFC, Debaryomyces hansenii [3]: 156 ± 0 µM; MFC, Eurotium rubrum (Eurotium rubrum 3071.14a): 78 ± 0 µM; MFC, Mucor racemosus (Mucor racemosus LMA-722): 312 ± 0 µM; MIC, Mucor racemosus (Mucor racemosus LMA-722): 312 ± 0 µM; MFC, Candida guilliermondii (C. guilliermondii 27168): 625 ± 0 µM; MIC, Candida guilliermondii (C. guilliermondii 27168): 312 ± 0 µM; MFC, Aspergillus versicolor (A. versicolor LMA-370): 78 ± 0 µM; MFC, Penicillium commune (P. commune 27163): 312 ± 0 µM; MIC, Penicillium commune (P. commune 27163): 312 ± 0 µM |
| FRLLGNVIVVV [Pep4] | 312 ± 0 | 312 ± 0 | 625 ± 0 | 625 ± 0 | 156 ± 0 | – | 375 | 312 ± 0 | – |
| LAHKYH [Pep15] | – | – | – | 1250 ± 0 | – | 1250 ± 0 | 1250 ± 0 | – | – |
| NALAHKYH [Pep3] | – | – | 1250 ± 0 | 625 ± 0 | – | 625 ± 0 | 625 ± 0 | – | – |
| QKVVAGVANALAHKYH [Pep14] | – | – | 78 ± 0 | 78 ± 0 | – | 78 ± 0 | 78 ± 0 | – | – |
